Data as given in US20080300298A1, “Honokiol Derivates For the Treatment of Proliferative Disorders” (priority 2005, published 2008).
Read-outs that look alike come from different tables or passages of the source.

How the values were obtained:
[1] = test system: MM.1S cells; test: cells; type: cell-based; conditions: Homo sapiens, MM1.S, read-out: percentage of nonviable cells by trypan blue exclusion
Description: Assessment of HNK-induced cytotoxicity against patient MM cells: Cytotoxicity of HNK against fresh MM cells was determined as previously determined, see, for example, Mitsiades et al Cancer Cell. 2004; 5:221-230. Fresh MNCs separated from bone marrow samples derived from patients with MM were incubated with PE-conjugated anti-CD138 antibody and/or FITC-conjugated anti-CD38 antibody (BD Biosciences, San Diego, Calif.) for 30 minutes on ice and washed, followed by analysis using EPICS XL flow cytometer (Beckman Coulter, Hialeah, Fla.). A CD38^high fraction enriched for MM cells was determined in side and forward scatter panel in each case. The expression of CD138 on gated cells was also evaluated. After HNK-treatment for 48 h, cells were harvested and percentage of CD38^high cells with or without HNK-treatment was evaluated. […] Cells were stained with propidium iodide (PI; 50 μg/mL; Sigma, St Louis, Mo.), and cell cycle profile was determined by using the program M software on an EPICS XL flow cytometer (Beckman Coulter, Hialeah, Fla.). […] Fluorescence intensity of TUNEL and APO 2.7 staining was determined using on EPICS XL flow cytometer. Cytotoxicity was determined by trypan blue exclusion assay. […] Cell growth and induction of apoptosis were determined both by colorimetric assay and now cytometric detection of APO2.7 after 48 h treatment. […] DNA synthesis was measured by [^3H]-thymidine uptake. […]

[2] = test system: AMP kinase in PC3 cells; test: AMPK activation (Western blot); type: cell-based, human; conditions: normoxic and hypoxic conditions
Description: Bharti, A. C. et al (2004) Blood 103, 3175-3184; Arbiser, J. L et al (1998) Mol. Med. 4, 376-383; Woods, A. et al (2003) Current Biology 13, 2004-2008; Shaw, R. J. et al (2004) PNAS 101, 3329-3335; Buzzai, M. et al (2005) Oncogene 24, 4165-4173). […] PC3 cells were treated with honokiol in normoxia (left) or hypoxia (right). In both cases, HIF-1a induction is dose dependent, and in the case of hypoxia, at least additive. Compounds can be tested on the p53 deficient PC3 human prostate cancer cell line, to see whether treatment results in activation of AMPK as in FIG. 20. PC3 cells can be treated with compound or vehicle for 24 hours, then proteins harvested and analyzed by Western blot for phosphorylation of the alpha subunit of AMPK, a marker of AMPK activation. In addition, phosphorylation of a substrate of AMPK, acetyl CoA carboxylase (ACC) can be monitored by Western blot.

## C=CCc1ccc(O)c(-c2ccc(O)c(CC=C)c2)c1 [HNK, Honokiol]
[1]; 24 h
  cytotoxicity at 10 µg/mL: 30.7 ± 5.5%
[1]
  cytotoxicity at 10 µg/mL: 27.6 ± 6.4%
[2]
  phosphorylation (activation) of AMP kinase: increased phosphorylation (activation) of AMP kinase
